Data: US20260266837A1, “Methods for Cancer Recurrence Detection and Treatment Thereof” (Institut Curie, priority 2022, published 2026)

Tested on: MDA-MB-468 cells, persister genes
Experiment: scRNA-seq expression changes induced by EZH2i-1 in the absence of chemotherapy
Assay type: cell-based, human
Protocol: Cell lines, culture conditions and drug treatments. MDA-MB-468 cells were cultured in DMEM (Gibco-BRL, Ref: 11966025), supplemented with 10% heat-inactivated fetal calf serum (Gibco-BRL, Ref: 10270-106). HCC38 and BT20 cell lines were cultured in RPMI 1640 (Gibco-BRL, Ref: 11875085), supplemented with 10% heat-inactivated fetal calf serum. […] Cells were treated with 5 μM of 5-FU (Sigma, Ref: F6627) alone or in combination with KDM6A/Bi or EZH2i for indicated days. For EZH2i, cells were pretreated with UNC 1999, UNC 2400 or GSK 126 for 10 days before the addition of 5-FU for an additional 21 days (FIG. 4 and Extended FIG. 8).
Single-cell RNA-seq. For each single cell suspension (DMSO-DO- #1, 5-FU-D33- #1, 5-FU-D214- #1, 5-FU-D67- #2, 5-FU-D171- #2, 5-FU-D50- #3, 5-FU-D77- #3 and 5-FU-D202- #3) or PDX dissociated cells (PDX_95, PDX_39 or PDX_172, untreated and persister cells), approximately 3,000 cells were loaded on a Chromium Single Cell Controller Instrument (Chromium Single Cell 3′v3, 10× Genomics, Ref: PN-1000075) according to the manufacturer's instructions. Samples and libraries were prepared according to the manufacturer's instructions. Libraries were sequenced on a NovaSeq 6000 (Illumina) in PE 28-8-91 with a coverage of 50,000 reads/cell.
Single-cell RNA-seq analysis. The scRNA-seq sequencing files were preprocessed using the cellRanger pipeline. For PDX samples, files were aligned against hg19 and mm10 genomes and only cells with a majority of human reads were retained for the analysis. For the MDA-MB-468 human cell line, sequences were aligned against the hg38 genome only. Cells with less than 3,000 […] for MDA-MB-468 or 2,500 for PDX or more than 8,000 detected genes, or more than 100,000 reads were filtered out, as well as cells with a percent of mitochondrial reads greater than 15% or a percentage of spike in greater than 5%. Normalization, dimensionality reduction and Louvain clustering was done using monocle3 (v0.2.2)^52 keeping the first 50 Principal Components (PC). Cell cycle was determined for each cell using Seurat (v3.1.5)^53. […] Differentially expressed genes were obtained by comparing raw gene expression values using edgeR GLM statistical model^54. […] For MDA-MB-468 samples, as the number of cells was high, a subset of 500 cells per cluster was subsampled from each cluster for the differential analysis and downstream steps. Intra-cluster correlation scores were calculated using Pearson's correlation score, with a random subsampling of n=500 cells per cluster.

activation of persister genes with depletion of H3K27me3 upon 5-FU treatment (23/37 genes, no chemotherapy): 62%
SMILES: CCCc1cc(C)[nH]c(=O)c1CNC(=O)c1cc(-c2ccc(N3CCN(C(C)C)CC3)nc2)cc2c1cnn2C(C)C [EZH2i-1]
over-expression of persister genes independently of any H3K27me3 enrichment in untreated cells (78/131 genes, no chemotherapy): 60%
expression of candidate master TFs FOXQ1, FOSL1 and N 2RF2 (EZH2i-1 treatment): re-expressed by EZH2i-1 treatment
Pearson correlation of expression fold-changes induced by EZH2i-1 with those induced by chemotherapy in persister cells (early time points, D33 versus D0): 0.71
Pearson correlation of expression fold-changes induced by EZH2i-1 with changes in resistant cells (resistant cells): 0.31
